Test results as given in patent US20240270762A1, “PENICILLIN-BINDING PROTEIN INHIBITORS” (priority 2021, published 2024).
Values after ≈ are worked out from the molar mass of the structure shown. Like-named read-outs stand apart in the source and are kept apart here.

Assays:
N. gonorrhoeae WHO Z = experiment: Liquid broth MIC in Fastidious broth; settings: Neisseria gonorrhoeae
N. gonorrhoeae FA1090 = experiment: Liquid broth MIC in Fastidious broth; settings: Neisseria gonorrhoeae
N. gonorrhoeae WHO G = experiment: Liquid broth MIC in Fastidious broth; settings: Neisseria gonorrhoeae
N. gonorrhoeae WHO X = experiment: Liquid broth MIC in Fastidious broth; settings: Neisseria gonorrhoeae
N. gonorrhoeae WHO Q = experiment: Liquid broth MIC in Fastidious broth; settings: Neisseria gonorrhoeae
N. gonorrhoeae WHO K = experiment: Liquid broth MIC in Fastidious broth; settings: Neisseria gonorrhoeae
N. gonorrhoeae WHO M = experiment: Liquid broth MIC in Fastidious broth; settings: Neisseria gonorrhoeae
P. aeruginosa CDC-0095 = experiment: microbe, parasite or virus in culture; format: cell-based; settings: Pseudomonas aeruginosa, CDC0095, read-out: Minimum inhibitory concentration, P. aeruginosa CDC-0095
A. baumannii 1258916 = experiment: microbe, parasite or virus in culture; format: cell-based, Acinetobacter baumannii; settings: Acinetobacter baumannii, 1258916, read-out: MIC, A. baumannii 1258916
[1] = target: T1, PBP3 from Acinetobacter baumannii (ATCC 19606) (Acinetobacter baumannii, UniProt A0ABX6CK25); experiment: Bocillin-FL fluorescence polarization competition binding, A. baumannii PBP3; settings: fluorescence polarization competition binding assay using Bocillin-FL; read-out: A. baumannii PBP3 Potency
T1 sequence (A0ABX6CK25 64-610): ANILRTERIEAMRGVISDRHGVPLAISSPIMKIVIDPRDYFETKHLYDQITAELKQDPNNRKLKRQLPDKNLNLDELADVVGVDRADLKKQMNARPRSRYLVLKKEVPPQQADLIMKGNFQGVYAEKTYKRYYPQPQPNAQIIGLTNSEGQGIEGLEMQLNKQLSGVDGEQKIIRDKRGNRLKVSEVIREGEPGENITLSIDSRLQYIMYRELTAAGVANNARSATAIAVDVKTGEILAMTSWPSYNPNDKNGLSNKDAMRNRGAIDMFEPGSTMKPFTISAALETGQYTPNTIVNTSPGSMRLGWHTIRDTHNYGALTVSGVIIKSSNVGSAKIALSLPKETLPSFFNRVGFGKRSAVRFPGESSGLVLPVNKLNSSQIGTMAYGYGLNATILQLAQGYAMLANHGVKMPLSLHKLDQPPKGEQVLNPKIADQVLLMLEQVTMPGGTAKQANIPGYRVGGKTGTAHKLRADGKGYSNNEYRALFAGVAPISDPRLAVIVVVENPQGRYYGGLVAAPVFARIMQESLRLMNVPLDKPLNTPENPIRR
Method in brief: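 Purified PBPs pre-incubated with inhibitor (E. coli PBP3 1.5 μM, 30 min; P. aeruginosa PBP3 0.75 μM, A. baumannii PBP1a 1 μM and PBP3 0.2 μM, 15 min), then Bocillin-FL 0.1 μM (0.05 μM for PBP1a) added; FP read up to 60 min. EC50 = concentration halving bound Bocillin-FL.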

A. baumannii CDC-0036 = experiment: microbe, parasite or virus in culture; format: cell-based; settings: Acinetobacter baumannii, CDC0036, read-out: MIC, A. baumannii CDC-0036
[2] = read-out: Minimum Inhibitory Concentration (MIC), N. gonorrhoeae WHO Z
[3] = FA1090, read-out: Minimum Inhibitory Concentration (MIC), N. gonorrhoeae FA 1090
[4] = read-out: Minimum Inhibitory Concentration (MIC), N. gonorrhoeae WHO G
[5] = read-out: Minimum Inhibitory Concentration (MIC), N. gonorrhoeae WHO X
[6] = read-out: Minimum Inhibitory Concentration (MIC), N. gonorrhoeae WHO Q
[7] = read-out: Minimum Inhibitory Concentration (MIC), N. gonorrhoeae WHO K
[8] = read-out: Minimum Inhibitory Concentration (MIC), N. gonorrhoeae WHO M

SMILES: O=C(O)c1cccc2c1OB(O)[C@@H](NC(=O)[C@H](NC(=O)c1cnc3n(c1=O)CCS3)c1ccc(P(=O)(O)O)cc1)C2 (single isomer, unassigned) [Example 197]
- MIC (N. gonorrhoeae WHO Z; [2]): 16 to 32 µg/mL (≈ 26.7 to 53.3 µM)
- MIC (N. gonorrhoeae FA1090; [3]): 1 to 2 µg/mL (≈ 1.67 to 3.33 µM)
- MIC (N. gonorrhoeae WHO G; [4]): 4 to 8 µg/mL (≈ 6.66 to 13.3 µM)
- MIC (N. gonorrhoeae WHO X; [5]): 16 to 32 µg/mL (≈ 26.7 to 53.3 µM)
- MIC (N. gonorrhoeae WHO Q; [6]): 16 to 32 µg/mL (≈ 26.7 to 53.3 µM)
- MIC (N. gonorrhoeae WHO K; [7]): 16 to 32 µg/mL (≈ 26.7 to 53.3 µM)
- MIC (N. gonorrhoeae WHO M; [8]): 4 to 8 µg/mL (≈ 6.66 to 13.3 µM)

SMILES: O=C(NCCCN1CCN(C(=O)NC(C(=O)N[C@H]2Cc3ccc(F)c(C(=O)O)c3OB2O)c2cc(F)c(O)c(O)c2Cl)C(=O)C1=O)Nc1cccc(O)c1 (stereo partly drawn) [Example 206, (3R)-3-(2-(2-chloro-5-fluoro-3,4-dihydroxyphenyl)-2-(4-(3-(3-(3-hydroxyphenyl)ureido)propyl)-2,3-dioxopiperazine-1-carboxamido)acetamido)-7-fluoro-2-hydroxy-3,4-dihydro-2H-benzo[e][1,2]oxaborinine-8-carboxylic acid]
- MIC (N. gonorrhoeae WHO Z; [2]): 16 to 32 µg/mL (≈ 20.6 to 41.3 µM)
- MIC (P. aeruginosa CDC-0095): < 1 µg/mL
- MIC (N. gonorrhoeae FA1090; [3]): 1 to 2 µg/mL (≈ 1.29 to 2.58 µM)
- MIC (N. gonorrhoeae WHO G; [4]): 4 to 8 µg/mL (≈ 5.16 to 10.3 µM)
- MIC (A. baumannii 1258916): < 1 µg/mL
- IC50 [1]: < 10 µM
- MIC (N. gonorrhoeae WHO X; [5]): > 64 µg/mL
- MIC (A. baumannii CDC-0036): < 1 µg/mL
- MIC (N. gonorrhoeae WHO Q; [6]): 16 to 32 µg/mL (≈ 20.6 to 41.3 µM)
- MIC (N. gonorrhoeae WHO K; [7]): > 64 µg/mL
- MIC (N. gonorrhoeae WHO M; [8]): 4 to 8 µg/mL (≈ 5.16 to 10.3 µM)

SMILES: O=C(NCCS(=O)(=O)N1CCN(C(=O)NC(C(=O)N[C@H]2Cc3ccc(F)c(C(=O)O)c3OB2O)c2cc(F)c(O)c(O)c2Cl)C1=O)c1cccc(O)c1 (stereo partly drawn) [Example 261, (3R)-3-(2-(2-chloro-5-fluoro-3,4-dihydroxyphenyl)-2-(3-((2-(3-hydroxybenzamido)ethyl)sulfonyl)-2-oxoimidazolidine-1-carboxamido)acetamido)-7-fluoro-2-hydroxy-3,4-dihydro-2H-benzo[e][1,2]oxaborinine-8-carboxylic acid]
- MIC (N. gonorrhoeae WHO Z; read-out: Minimum Inhibitory Concentration, WHO Z): 4 to 8 µg/mL (≈ 5.12 to 10.2 µM)
- MIC (P. aeruginosa CDC-0095): 2 to 4 µg/mL (≈ 2.56 to 5.12 µM)
- MIC (N. gonorrhoeae FA1090; FA1090, read-out: Minimum Inhibitory Concentration, FA 1090): 4 to 8 µg/mL (≈ 5.12 to 10.2 µM)
- MIC (N. gonorrhoeae WHO G; read-out: Minimum Inhibitory Concentration, WHO G): 16 to 32 µg/mL (≈ 20.5 to 40.9 µM)
- MIC (A. baumannii 1258916): < 1 µg/mL
- IC50 [1]: < 10 µM
- MIC (N. gonorrhoeae WHO X; read-out: Minimum Inhibitory Concentration, WHO X): > 64 µg/mL
- MIC (A. baumannii CDC-0036): 2 to 4 µg/mL (≈ 2.56 to 5.12 µM)
- MIC (N. gonorrhoeae WHO Q; read-out: Minimum Inhibitory Concentration, WHO Q): 16 to 32 µg/mL (≈ 20.5 to 40.9 µM)
- MIC (N. gonorrhoeae WHO K; read-out: Minimum Inhibitory Concentration, WHO K): > 64 µg/mL
- MIC (N. gonorrhoeae WHO M; read-out: Minimum Inhibitory Concentration, WHO M): 4 to 8 µg/mL (≈ 5.12 to 10.2 µM)

SMILES: O=C(O)c1cccc2c1OB(O)[C@@H](NC(=O)[C@@H](NC(=O)c1cnc3n(c1=O)CCS3)c1ccc(P(=O)(O)O)cc1)C2 (single isomer, unassigned) [Example 196]
- MIC (N. gonorrhoeae WHO Z; [2]): 16 to 32 µg/mL (≈ 26.7 to 53.3 µM)
- MIC (N. gonorrhoeae FA1090; [3]): 4 to 8 µg/mL (≈ 6.66 to 13.3 µM)
- MIC (N. gonorrhoeae WHO G; [4]): 16 to 32 µg/mL (≈ 26.7 to 53.3 µM)
- MIC (N. gonorrhoeae WHO X; [5]): 16 to 32 µg/mL (≈ 26.7 to 53.3 µM)
- MIC (N. gonorrhoeae WHO Q; [6]): 16 to 32 µg/mL (≈ 26.7 to 53.3 µM)
- MIC (N. gonorrhoeae WHO K; [7]): 16 to 32 µg/mL (≈ 26.7 to 53.3 µM)
- MIC (N. gonorrhoeae WHO M; [8]): 16 to 32 µg/mL (≈ 26.7 to 53.3 µM)

SMILES: O=C(CN1CCN(C(=O)NC(C(=O)N[C@H]2Cc3ccc(F)c(C(=O)O)c3OB2O)c2cc(F)c(O)c(O)c2Cl)C(=O)C1=O)NCc1ccc(O)cc1 (stereo partly drawn) [Example 236, (3R)-3-(2-(2-chloro-5-fluoro-3,4-dihydroxyphenyl)-2-(4-(2-((4-hydroxybenzyl)amino)-2-oxoethyl)-2,3-dioxopiperazine-1-carboxamido)acetamido)-7-fluoro-2-hydroxy-3,4-dihydro-2H-benzo[e][1,2]oxaborinine-8-carboxylic acid]
- MIC (A. baumannii 1258916): 2 to 4 µg/mL (≈ 2.68 to 5.36 µM)
- IC50 [1]: < 10 µM
- MIC (A. baumannii CDC-0036): 8 to 16 µg/mL (≈ 10.7 to 21.5 µM)

SMILES: CCN1CCN(C(=O)NC(C(=O)N[C@H]2Cc3cccc(C(=O)O)c3OB2O)c2ccc(P(=O)(O)O)c(F)c2O)C(=O)C1=O (stereo partly drawn) [Example 198, (3R)-3-(2-(4-ethyl-2,3-dioxopiperazine-1-carboxamido)-2-(3-fluoro-2-hydroxy-4-phosphonophenyl)acetamido)-2-hydroxy-3,4-dihydro-2H-benzo[e][1,2]oxaborinine-8-carboxylic acid]
- MIC (N. gonorrhoeae WHO Z; [2]): 1 to 2 µg/mL (≈ 1.61 to 3.21 µM)
- MIC (N. gonorrhoeae FA1090; [3]): < 1 µg/mL
- MIC (N. gonorrhoeae WHO G; [4]): < 1 µg/mL
- MIC (N. gonorrhoeae WHO X; [5]): 4 to 8 µg/mL (≈ 6.43 to 12.9 µM)
- MIC (N. gonorrhoeae WHO Q; [6]): 1 to 2 µg/mL (≈ 1.61 to 3.21 µM)
- MIC (N. gonorrhoeae WHO K; [7]): 4 to 8 µg/mL (≈ 6.43 to 12.9 µM)
- MIC (N. gonorrhoeae WHO M; [8]): < 1 µg/mL
